Legend:
[1] = test system: HeLa cells; assay: Transfection of HeLa cells with EGFP plasmid on coated 96-well plates; format: cell-based; details: 24 hr
Text: The coated plates prepared in Example 1 were used to transfect HeLa cells with an expression plasmid encoding Enhanced Green Fluorescent Protein (EGFP; purchased from Clontech, Inc., Palo Alto, Calif.). […] Before transfection, 1×10^6 HeLa cells were harvested and resuspended in 5 milliliters of the complete medium described in Example 1. 1 microgram of the EGFP plasmid was mixed with the cells. The mixture was subsequently placed into the coated plates (about 5,000 cells per well). After the cells had grown on the plates for 24 hr, pictures were taken under a fluorescent microscope.
Standard 96-well plates were coated with polyethylenimine […], a cationic polymer. More specifically, PEI (MW 25,000 Daltons) was purchased from Sigma-Aldrich (St. Louis, Mo.) and dissolved in deionized water to reach a concentration of 10 mg/ml. Each PEI solution was passed through a 0.45-micrometer filter membrane. This filtrate was used as the PEI stock solution and stored at 4° C. To coat the plates, the stock solution was diluted with sterile deionized water to 20 microgram/ml and a 10-microliter aliquot was added to each well of 96-well plates. The plates were dried and stored in the manner as described in Example 1.
To conduct transfection, HeLa cells were mixed with the EGFP plasmid in the complete medium described in Example 1 and placed onto the PEI-coated plates. […]

[2] = test system: fluorescent-labeled oligonucleotide; assay: Capture of fluorescent-labeled oligonucleotide by coated plates (fluorescent microscope); format: binding; details: 0.1 microgram oligonucleotide per well in 100 microliters complete medium
Procedure: (§1) Standard 96-well plates were coated with 1,2 bis(oleoyloxy)-3-(trimethylammonio)propane (DOTAP; purchased from Avanti, Alabaster, Ala.), a cationic lipid. More specifically, 50-microliter aliquots of 2.5 nM, 5 nM, 10 nM, 40 nM, 60 nM, and 80 nM DOTAP methanolic solutions were added to the wells of six sets of the 96-well plates respectively. The plates were then dried overnight in a vacuum-drier and stored in a dessicator until use.
In another experiment, 0.1 microgram of fluorescent-labeled oligonucleotide was added to each well of the coated plates containing 100 microliters of the above-mentioned medium. The plates were then observed under a fluorescent microscope. The fluorescence was detected only on the coated surfaces but not in the medium.

[3] = test system: HeLa cells; assay: Transfection of HeLa cells with EGFP plasmid on glass slides tethered with DOTAP or PEI; format: cell-based; details: HeLa cells on glass slides printed with gelatin or chitosan and tethered coating, 24 hours
Procedure: Glass slides were tethered with DOTAP or PEI and used to transfect HeLa cells.
More specifically, borosilicate glass slides (VWR Scientific, Media, Pa.) were cleaned with Linbro 7× detergent (ICN Biomedicals, Inc., Aurora, Ohio), diluted 1:3 (v/v) in deionized water, and baked at 450° C. for 4 hr. The slides were then printed with gelatin or chitosan by microcontact printing using polydimethylsiloxane (PDMS; Sylgard 184; Dow Corning, Midland, Mich.) elastomer stamps. See Kam L. et al., J Biomed Mater Res. 55: 487-495 (2001). One milliliter of 10 nM DOTAP solution and 20 microgram/ml PEI solutions were respectively overlaid onto two set of slides for one minute. The slides were then briefly rinsed with Dulbecco's modified Eagle's medium (DMEM; Gibco BRL, Great Island, N.Y.) before use.
HeLa cells were mixed with the EGFP plasmid and seeded onto slides that were placed in 100 mm cell culture dishes containing the above-mentioned complete medium.

[4] = Stability of DOTAP coating on 96-well plates under complete medium, examined by microscope; format: physicochemical
Procedure: as §1
In one experiment, 100 microliters of a complete medium (i.e., RPMI medium containing 10% fetal calf serum, 50 units ml^−1 penicillin, and 50 micrograms ml^−1 streptomycin) was added to each well of the coated plates. The coated surfaces and the overlaying medium were then examined under a microscope at 6-hr intervals for 24 hr.

CCCCCCCC/C=C\CCCCCCCC(=O)OCC(C[N+](C)(C)C)OC(=O)CCCCCCC/C=C\CCCCCCCC (stereo not drawn) [DOTAP, 1,2 bis(oleoyloxy)-3-(trimethylammonio)propane]
cell shape / spreading on the coated plates ([1]; HeLa cells, microscopic views): spread unexpectedly well | cells expressing GFP / transfected (of total HeLa cells) ([1]; coated 96-well plates, fluorescent microscope, PEI density greater than 0.3 microgram/cm^2): more than 80% | capture of nucleic acid (location of fluorescence) [2]: effectively capture nucleic acid | cells found to express GFP [3]: 80% | liposome-like particles on the coated surfaces or in the medium ([4]; complete medium, 24 hr, all plates): no liposome-like particles were found | change of coated surfaces under complete medium ([4]; plates coated with 2.5-80 nM DOTAP solutions, examined at 6-hr intervals for 24 hr): no difference

Source: patent US20040048260A1, “Transfection of nucleic acid” (priority 2002, published 2004)
